Test results: ChEMBL document CHEMBL3044799, “Biological activity of the succinate dehydrogenase inhibitor fluopyram against Botrytis cinerea and fungal baseline sensitivity” (Pest Manag Sci, 2012)
Converted amounts (≈) assume the structure as drawn. The source made the active and inactive calls. The calls are words filed in the database; no cut-off is given here.

Tests used:
Botrytis cinerea [1] = experiment: Curative antifungal activity against Botryotinia fuckeliana inoculated in strawberry fruit assessed as disease control efficacy at 100 ug AI/ml applied 24 hr post-inoculation relative to control; assay type: functional
Botrytis cinerea [2] = experiment: Curative antifungal activity against Botryotinia fuckeliana inoculated in strawberry fruit assessed as disease control efficacy at 10 ug AI/ml applied 24 hr post-inoculation relative to control; assay type: functional
Botrytis cinerea [3] = experiment: Curative antifungal activity against Botryotinia fuckeliana inoculated in strawberry fruit assessed as disease control efficacy at 1 ug AI/ml applied 24 hr post-inoculation relative to control; assay type: functional
Botrytis cinerea [4] = experiment: Curative antifungal activity against Botryotinia fuckeliana inoculated in strawberry fruit assessed as disease severity measuring lesion diameter at 100 ug AI/ml applied 24 hr post-inoculation; assay type: functional
Botrytis cinerea [5] = experiment: Curative antifungal activity against Botryotinia fuckeliana inoculated in strawberry fruit assessed as disease control efficacy at 100 ug AI/ml applied 48 hr post-inoculation relative to control; assay type: functional
Botrytis cinerea [6] = experiment: Curative antifungal activity against Botryotinia fuckeliana inoculated in strawberry fruit assessed as disease control efficacy at 50 ug AI/ml applied 48 hr post-inoculation relative to control; assay type: functional
Botrytis cinerea [7] = experiment: Curative antifungal activity against Botryotinia fuckeliana inoculated in strawberry fruit assessed as disease control efficacy at 10 ug AI/ml applied 48 hr post-inoculation relative to control; assay type: functional
Botrytis cinerea [8] = experiment: Curative antifungal activity against Botryotinia fuckeliana inoculated in strawberry fruit assessed as disease severity measuring lesion diameter at 100 ug AI/ml applied 48 hr post-inoculation; assay type: functional
Botrytis cinerea [9] = experiment: Curative antifungal activity against Botryotinia fuckeliana inoculated in strawberry fruit assessed as disease severity measuring lesion diameter at 50 ug AI/ml applied 48 hr post-inoculation; assay type: functional
Botrytis cinerea [10] = experiment: Antifungal activity against Botryotinia fuckeliana obtained from cucumber isolate assessed as inhibition of spore germ tube growth; assay type: functional, organism-based
Botrytis cinerea [11] = experiment: Antifungal activity against Botryotinia fuckeliana obtained from grape isolate assessed as inhibition of spore germ tube growth; assay type: functional, organism-based
Botrytis cinerea [12] = experiment: Antifungal activity against Botryotinia fuckeliana obtained from tomato isolate assessed as inhibition of spore germ tube growth; assay type: functional, organism-based
Botrytis cinerea [13] = experiment: Antifungal activity against Botryotinia fuckeliana grown on YBA agar assessed as inhibition of mycelial growth at 5 ug/ml after 10 days; assay type: functional, organism-based
Botrytis cinerea [14] = experiment: Antifungal activity against Botryotinia fuckeliana grown on succinate medium assessed as inhibition of germ tube growth at 5 ug/ml after 10 days; assay type: functional, organism-based
Botrytis cinerea [15] = experiment: Curative antifungal activity against Botryotinia fuckeliana inoculated in strawberry fruit assessed as disease control efficacy at 50 ug AI/ml applied 96 hr post-inoculation relative to control; assay type: functional
Botrytis cinerea [16] = experiment: Curative antifungal activity against Botryotinia fuckeliana inoculated in strawberry fruit assessed as disease control efficacy at 10 ug AI/ml applied 96 hr post-inoculation relative to control; assay type: functional
Botrytis cinerea [17] = experiment: Curative antifungal activity against Botryotinia fuckeliana inoculated in strawberry fruit assessed as disease control efficacy at 1 ug AI/ml applied 96 hr post-inoculation relative to control; assay type: functional
Botrytis cinerea [18] = experiment: Antifungal activity against Botryotinia fuckeliana grown on YBA agar assessed as inhibition of germ tube growth at 1 ug/ml after 10 days; assay type: functional, organism-based
Botrytis cinerea [19] = experiment: Antifungal activity against Botryotinia fuckeliana grown on YBA agar assessed as inhibition of spore germination at 1 ug/ml after 10 days; assay type: functional, organism-based
Botrytis cinerea [20] = experiment: Antifungal activity against Botryotinia fuckeliana assessed as inhibition of spore germination at 0.001 to 10 ug/ml after 10 days; assay type: functional, organism-based
Botrytis cinerea [21] = experiment: Antifungal activity against Botryotinia fuckeliana assessed as inhibition of germ tube growth at 0.001 to 10 ug/ml after 10 days; assay type: functional, organism-based
Botrytis cinerea [22] = experiment: Protective antifungal activity against Botryotinia fuckeliana inoculated in fungicide-applied strawberry fruit assessed as disease control efficacy at 1 ug AI/ml applied 96 hr prior-inoculation relative to control; assay type: functional
Botrytis cinerea [23] = experiment: Protective antifungal activity against Botryotinia fuckeliana inoculated in fungicide-applied strawberry fruit assessed as disease severity measuring lesion diameter at 10 ug AI/ml applied 96 hr prior-inoculation; assay type: functional
Botrytis cinerea [24] = experiment: Protective antifungal activity against Botryotinia fuckeliana inoculated in fungicide-applied strawberry fruit assessed as disease severity measuring lesion diameter at 1 ug AI/ml applied 96 hr prior-inoculation; assay type: functional
Botrytis cinerea [25] = experiment: Antifungal activity against Botryotinia fuckeliana obtained from kiwi fruit isolate assessed as inhibition of spore germ tube growth; assay type: functional, organism-based
Botrytis cinerea [26] = experiment: Curative antifungal activity against Botryotinia fuckeliana inoculated in strawberry fruit assessed as disease severity measuring lesion diameter at 100 ug AI/ml applied 96 hr post-inoculation; assay type: functional
Botrytis cinerea [27] = experiment: Curative antifungal activity against Botryotinia fuckeliana inoculated in strawberry fruit assessed as disease severity measuring lesion diameter at 50 ug AI/ml applied 96 hr post-inoculation; assay type: functional
Botrytis cinerea [28] = experiment: Curative antifungal activity against Botryotinia fuckeliana inoculated in strawberry fruit assessed as disease severity measuring lesion diameter at 1 ug AI/ml applied 96 hr post-inoculation; assay type: functional
Botrytis cinerea [29] = experiment: Protective antifungal activity against Botryotinia fuckeliana inoculated in fungicide-applied strawberry fruit assessed as disease severity measuring lesion diameter at 1 ug AI/ml applied 24 hr prior inoculation; assay type: functional
Botrytis cinerea [30] = experiment: Protective antifungal activity against Botryotinia fuckeliana inoculated in fungicide-applied strawberry fruit assessed as disease control efficacy at 100 ug AI/ml applied 48 hr prior inoculation relative to control; assay type: functional
Botrytis cinerea [31] = experiment: Protective antifungal activity against Botryotinia fuckeliana inoculated in fungicide-applied strawberry fruit assessed as disease severity measuring lesion diameter at 100 ug AI/ml applied 48 hr prior inoculation; assay type: functional
Botrytis cinerea [32] = experiment: Protective antifungal activity against Botryotinia fuckeliana inoculated in fungicide-applied strawberry fruit assessed as disease severity measuring lesion diameter at 50 ug AI/ml applied 48 hr prior inoculation; assay type: functional
Botrytis cinerea [33] = experiment: Protective antifungal activity against Botryotinia fuckeliana inoculated in fungicide-applied strawberry fruit assessed as disease severity measuring lesion diameter at 1 ug AI/ml applied 48 hr prior inoculation; assay type: functional
Botrytis cinerea [34] = experiment: Protective antifungal activity against Botryotinia fuckeliana inoculated in fungicide-applied strawberry fruit assessed as disease control efficacy at 100 ug AI/ml applied 96 hr prior-inoculation relative to control; assay type: functional
Botrytis cinerea [35] = experiment: Protective antifungal activity against Botryotinia fuckeliana inoculated in fungicide-applied strawberry fruit assessed as disease control efficacy at 10 ug AI/ml applied 96 hr prior-inoculation relative to control; assay type: functional
Botrytis cinerea [36] = experiment: Curative antifungal activity against Botryotinia fuckeliana inoculated in strawberry fruit assessed as disease severity measuring lesion diameter at 1 ug AI/ml applied 48 hr post-inoculation; assay type: functional
Botrytis cinerea [37] = experiment: Protective antifungal activity against Botryotinia fuckeliana inoculated in fungicide-applied strawberry fruit assessed as disease control efficacy at 100 ug AI/ml applied 24 hr prior inoculation relative to control; assay type: functional
Botrytis cinerea [38] = experiment: Protective antifungal activity against Botryotinia fuckeliana inoculated in fungicide-applied strawberry fruit assessed as disease control efficacy at 50 ug AI/ml applied 24 hr prior inoculation relative to control; assay type: functional
Botrytis cinerea [39] = experiment: Protective antifungal activity against Botryotinia fuckeliana inoculated in fungicide-applied strawberry fruit assessed as disease control efficacy at 10 ug AI/ml applied 24 hr prior inoculation relative to control; assay type: functional
Botrytis cinerea [40] = experiment: Protective antifungal activity against Botryotinia fuckeliana inoculated in fungicide-applied strawberry fruit assessed as disease severity measuring lesion diameter at 100 ug AI/ml applied 24 hr prior inoculation; assay type: functional

O=C(NCCc1ncc(C(F)(F)F)cc1Cl)c1ccccc1C(F)(F)F [FLUOPYRAM]
Efficacy (Botrytis cinerea [1]): 79.3% | Efficacy (Botrytis cinerea [2]): 69.7% | Efficacy (Botrytis cinerea [3]): 53% | Activity (Botrytis cinerea [4]): 3.9 mm | Efficacy (Botrytis cinerea [5]): 92.2% | Efficacy (Botrytis cinerea [6]): 82.9% | Efficacy (Botrytis cinerea [7]): 81.2% | Activity (Botrytis cinerea [8]): 1.4 mm | Activity (Botrytis cinerea [9]): 3.2 mm | EC50 (Botrytis cinerea [10]): 0.1 µg/mL (≈ 0.252 µM) | EC50 (Botrytis cinerea [11]): 0.13 µg/mL (≈ 0.328 µM) | EC50 (Botrytis cinerea [12]): 0.11 µg/mL (≈ 0.277 µM) | growth inhibition (GI) (Botrytis cinerea [13]): Active | growth inhibition (GI) (Botrytis cinerea [14]): Active | Efficacy (Botrytis cinerea [15]): 45.1% | Efficacy (Botrytis cinerea [16]): 41.1% | Efficacy (Botrytis cinerea [17]): 37.2% | growth inhibition (GI) (Botrytis cinerea [18]): Active | growth inhibition (GI) (Botrytis cinerea [19]): Active | growth inhibition (GI) (Botrytis cinerea [20]): Active | growth inhibition (GI) (Botrytis cinerea [21]): Active | Efficacy (Botrytis cinerea [22]): 53.6% | Activity (Botrytis cinerea [23]): 4.2 mm | Activity (Botrytis cinerea [24]): 8.7 mm | EC50 (Botrytis cinerea [25]): 0.1 µg/mL (≈ 0.252 µM) | Activity (Botrytis cinerea [26]): 7 mm | Activity (Botrytis cinerea [27]): 10.3 mm | Activity (Botrytis cinerea [28]): 11.8 mm | Activity (Botrytis cinerea [29]): 6.3 mm | Efficacy (Botrytis cinerea [30]): 95.9% | Activity (Botrytis cinerea [31]): 1.1 mm | Activity (Botrytis cinerea [32]): 2.3 mm | Activity (Botrytis cinerea [33]): 8.6 mm | Efficacy (Botrytis cinerea [34]): 93.9% | Efficacy (Botrytis cinerea [35]): 66.3% | Activity (Botrytis cinerea [36]): 6.9 mm | Efficacy (Botrytis cinerea [37]): 100% | Efficacy (Botrytis cinerea [38]): 93.9% | Efficacy (Botrytis cinerea [39]): 77.2% | Activity (Botrytis cinerea [40]): 0 mm
